Experimental data taken from PubChem BioAssay (NCI).
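Growth conditions: 96-well plates. Treatment: test compound, 48 hours, 5 concentrations. Analysis: linear interpolation between bracketing concentrations; unreached endpoints set to highest concentration. GI50 is the concentration that inhibits growth by half. TGI: concentration producing complete growth inhibition.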

Tests used:
Test in all cases: growth of human tumour cells (NCI), 48 h
SK-MEL-2 melanoma = tested on: SK-MEL-2 melanoma
NCI-H226 lung = tested on: NCI-H226 lung
MOLT-4 leukemia = tested on: MOLT-4 leukemia
UO-31 renal = tested on: UO-31 renal
ACHN renal = tested on: ACHN renal
SW-620 colon = tested on: SW-620 colon
U251 CNS = tested on: U251 CNS
NCI-H460 lung = tested on: NCI-H460 lung
RPMI-8226 leukemia = tested on: RPMI-8226 leukemia
UACC-62 melanoma = tested on: UACC-62 melanoma

| SMILES | GI50 (SK-MEL-2 melanoma) [µM] | TGI (SK-MEL-2 melanoma) [µM] | GI50 (NCI-H226 lung) [µM] | TGI (NCI-H226 lung) [µM] | GI50 (MOLT-4 leukemia) [µM] | TGI (MOLT-4 leukemia) [µM] | GI50 (UO-31 renal) [µM] | TGI (UO-31 renal) [µM] | GI50 (ACHN renal) [µM] | TGI (ACHN renal) [µM] | GI50 (SW-620 colon) [µM] | TGI (SW-620 colon) [µM] | GI50 (U251 CNS) [µM] | TGI (U251 CNS) [µM] | GI50 (NCI-H460 lung) [µM] | TGI (NCI-H460 lung) [µM] | GI50 (RPMI-8226 leukemia) [µM] | TGI (RPMI-8226 leukemia) [µM] | GI50 (UACC-62 melanoma) [µM] | TGI (UACC-62 melanoma) [µM] |
| --- | --- | --- | --- | --- | --- | --- | --- | --- | --- | --- | --- | --- | --- | --- | --- | --- | --- | --- | --- | --- |
| COc1c(C)c2c(c(O)c1C/C=C(\C)CCC(=O)OCCN1CCOCC1)C(=O)OC2 | 33.6 | > 100 | 0.581 | > 100 | 0.302 | > 100 | 0.599 | > 100 | 0.458 | > 100 | 0.142 | > 100 | 0.11 | > 100 | 0.0823 | > 100 | 0.891 | > 100 | 0.354 | > 100 |
| COC(=O)COc1ccc(/C=C2\N=C(c3ccccc3)N(c3cc(C(F)(F)F)ccc3Cl)C2=O)cc1 | 83.5 | > 100 | 52.2 | > 100 | 28.6 | 69.1 | 27.1 | > 100 | > 100 | > 100 | 62.1 | > 100 | 46.4 | > 100 | > 100 | > 100 | 19 | 46.1 | > 100 | > 100 |
| CN(C)NC1=NS(=O)(=O)c2cc3c(cc2S1)N(N(C)C)C(=O)c1cc2c(cc1N(N(C)C)C3=O)SC(NN(C)C)=NS2(=O)=O | – | > 10 | – | > 10 | – | > 10 | – | > 10 | – | > 10 | – | > 10 | – | > 10 | – | > 10 | – | > 10 | – | – |
| C=C1C[C@@H]2C/C=C/C(=O)C/C(C)=C\C=C\C(=O)O[C@H](C=O)C/C(C)=C/[C@H](C1)O2 | 6.1 | 34.9 | 8.49 | 49 | 2.72 | 13.7 | 3.33 | 56.4 | 6.64 | 21.8 | 0.449 | 15.7 | 0.711 | 14.1 | 3.07 | 16.7 | 0.295 | 3.29 | 0.818 | 14 |
| CN(C)CCCN=C(N)N | – | > 100 | – | > 100 | – | > 100 | – | > 100 | – | > 100 | – | > 100 | – | > 100 | – | > 100 | – | > 100 | – | > 100 |
| C1CNCCNCCNCCN1 | – | > 100 | – | > 100 | – | > 100 | – | > 100 | – | > 100 | – | > 100 | – | 81.5 | – | > 100 | – | > 100 | – | > 100 |
| Cc1cc(O)c(C(=O)CC2(O)C(=O)Nc3c(Cl)cc(Cl)cc32)c(=O)o1 (stereo unspecified) | – | > 100 | – | > 100 | – | > 100 | – | > 100 | – | > 100 | – | > 100 | – | > 100 | – | > 100 | – | > 100 | – | > 100 |
| COc1ccc2c(c1)nc(N)c1c3cc(OC)c(OC)cc3cn21 | 2.13 | 24.1 | – | 16.8 | 0.281 | 12.6 | 2.51 | 20.5 | < 0.01 | 16.3 | < 0.01 | 19.8 | 0.118 | 14.6 | 0.0606 | 11 | 0.0968 | 12.8 | < 0.01 | 21.7 |
| CC(=O)OCSc1ncnc2c1ncn2CN1CCOCC1 | – | > 100 | – | > 100 | – | > 100 | – | > 100 | – | > 100 | – | > 100 | – | > 100 | – | > 100 | – | > 100 | – | > 100 |
| O=C(NC1CC1)c1ccc(-c2nc3ccc4[nH]ncc4c3c3c2CCCC3)cc1 | 1.76 | 7.36 | 3.41 | 47.6 | 1.75 | 20.1 | 1.84 | 13.5 | 1.03 | > 50 | 1.41 | 10.3 | 2.19 | 13.7 | 2.05 | 12.2 | 1.08 | 12 | 2.19 | 9.77 |
| COc1ccc2nc(-c3ccccc3)cc(Nc3ccc(C(C)=O)cc3)c2c1 | 38.7 | > 100 | 0.94 | 3.46 | 1.98 | 4.93 | 6.2 | > 100 | 2.54 | 9.79 | 5.08 | 18.5 | 2.46 | 10.8 | 5.73 | 19.3 | 1.72 | 4.31 | 2.31 | 5.13 |
| N#CCc1ccc(C(C#N)/C(CCCC(=O)Nc2cccc([N+](=O)[O-])c2)=N\NC(=O)NN)cc1 (stereo unspecified) | – | > 100 | – | > 100 | – | > 100 | – | > 100 | – | > 100 | – | > 100 | – | > 100 | – | > 100 | – | > 100 | – | > 100 |
| O=[N+]([O-])c1ccc(Sc2c3ccccc3nc3ccccc23)cc1 | – | > 100 | – | > 100 | – | > 100 | – | > 100 | – | > 100 | – | > 100 | – | > 100 | – | > 100 | – | > 100 | – | > 100 |
| N#CCN1CCCCCc2ccccc21 | – | – | – | > 100 | – | > 100 | – | > 100 | – | > 100 | – | > 100 | – | > 100 | – | > 100 | – | > 100 | – | > 100 |
| NCCCC(=O)Nc1ccncc1 | > 100 | > 100 | > 100 | > 100 | > 100 | > 100 | > 100 | > 100 | > 100 | > 100 | > 100 | > 100 | > 100 | > 100 | > 100 | > 100 | > 100 | > 100 | > 100 | > 100 |
| CCOC(=O)/C(=C\c1ccc(OCc2ccccc2)c(OC)c1)C(=O)c1ccccc1 | – | 40.7 | – | 42.5 | – | 43.6 | – | 32.4 | – | 34.8 | – | 40 | – | 31.1 | – | – | – | 86.5 | – | 48.4 |
